What all share (type): in vivo
In assay [1] the test system is Eiysiphe graminis f. sp. tritici. Description: Test A: wheat powdery mildew, preventive spray on wheat seedlings. To be noted: for Test A disease control rating: wheat powdery mildew; for Test A disease control rating (100 = 100% disease control, 0 = no disease control): wheat seedlings sprayed to run-off, inoculated the following day, rating relative to controls, unmarked compounds (standard test rate). Put shortly:
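Preventive test: seedlings inoculated with powdery mildew spores one day after run-off spraying of a suspension. Ratings after 7 days in a 20° C growth chamber express percent disease control versus controls.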

Assay [2] concerns Puccinia recondita. Description: Test B: wheat leaf rust, preventive spray on wheat seedlings. As to conditions: for Test B disease control rating: wheat leaf rust; for Test B disease control rating (100 = 100% disease control, 0 = no disease control): wheat seedlings sprayed to run-off, inoculated the following day, rating relative to controls, unmarked compounds (standard test rate). In outline: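 Preventive test: P. recondita spores were applied one day after a run-off spray of compound suspension on wheat seedlings. Plants had 24 h at 20 °C in saturated air plus 6 days in a 20 °C growth chamber. Scoring is % disease control (100 = full) relative to controls.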

In assay [3] the test system is Pyricularia oryzae. To be noted: for Test C disease control rating: rice blast; for Test C disease control rating (100 = 100% disease control, 0 = no disease control): rice seedlings sprayed to run-off, inoculated the following day, rating relative to controls, unmarked compounds (standard test rate).
In assay [4] the test system is Phytophthora infestans. As to conditions: for Test D disease control rating: tomato late blight; for Test D disease control rating (100 = 100% disease control, 0 = no disease control): tomato seedlings sprayed to run-off, inoculated the following day, rating relative to controls, unmarked compounds (standard test rate).
Assay [5] deals with Botrytis cinerea. Description: Test E: gray mold, preventive spray on cucumber seedlings. To be noted: for Test E disease control rating: gray mold on cucumber; for Test E disease control rating (100 = 100% disease control, 0 = no disease control): cucumber seedlings sprayed to run-off, inoculated the following day, rating relative to controls, unmarked compounds (standard test rate). Put shortly: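 Preventive spray on cucumber seedlings used a suspension (3% acetone, 250 ppm Trem 014), applied to run-off one day before inoculation with Botrytis cinerea spores. Plants were held 48 h at 20° C in saturated air, then 5 days at 20° C. Percent disease control was scored relative to untreated plants.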

[6] abbreviates: 100 = 100% disease control, 0 = no control relative to controls, unmarked entries (standard test concentration).
[7] abbreviates: 100 = 100% disease control, 0 = no control, unmarked entries (standard test concentration).

Like-named read-outs stand apart in the source and are kept apart here.

Data on ten compounds can be found in patent publication US6642392B1 (priority 1997, dated 2003).

For `CC(COc1ccccc1C(F)(F)F)NC(=O)C(C#N)C(C)(C)C` (mixture of isomers) [17a], in assay [1] (setting [6]), the “Test A disease control rating” value worked out at 85%. For the same compound, the “Test B disease control rating” value in assay [2] (setting [7]) was determined as 67%. In assay [3] (setting [7]), the “Test C disease control rating” value worked out at 30%. The “Test D disease control rating” value in assay [4] (setting [7]) amounted to 16%. The “Test E disease control rating” value in assay [5] (setting [7]) is 0%.
`CC(COc1cc(F)ccc1Cl)NC(=O)C(C#N)C(C)(C)C=CF` (mixture of isomers) [compound 222]: in assay [1], the “Test A disease control rating (100 = 100% disease control, 0 = no disease control)” value is listed as 62%. For the same compound, in assay [2], the “Test B disease control rating (100 = 100% disease control, 0 = no disease control)” value was determined as 28%. In addition, the “Test C disease control rating (100 = 100% disease control, 0 = no disease control)” value in assay [3] is listed as 100%. In assay [4], the “Test D disease control rating (100 = 100% disease control, 0 = no disease control)” value turned out to be 41%. For the same compound, in assay [5], the “Test E disease control rating (100 = 100% disease control, 0 = no disease control)” value stood at 0%.
The like results for `CC(COc1ccccc1F)NC(=O)C1(C)CC1(Cl)Cl` (mixture of isomers) [compound 315] were, in that order, 60%, 99%, 51%, 16% and 0%.
`C=CCc1ccccc1OCC(C)NC(=O)C1(CC)C(C)C1(Cl)Cl` (mixture of isomers) [101a]: the “Test A disease control rating” value in assay [1] (setting [6]) is on record as 0%. The “Test B disease control rating” value in assay [2] (setting [7]) was determined as 0%. The “Test C disease control rating” value in assay [3] (setting [7]) was 0%. Also, in assay [4] (setting [7]), the “Test D disease control rating” value stood at 46%. In addition, the “Test E disease control rating” value in assay [5] (setting [7]) is 22%.
Regarding `C[C@H](COc1ccc(Cl)cc1)NC(=O)C(C#N)C(C)(C)C` (single isomer, unassigned) [7c], the “Test A disease control rating” value in assay [1] (setting [6]) was determined as 0%. Further, in assay [2] (setting [7]), the “Test B disease control rating” value is on record as 0%. For the same compound, the “Test C disease control rating” value in assay [3] (setting [7]) is listed as 86%. Besides, the “Test D disease control rating” value in assay [4] (setting [7]) was 9%. Also, the “Test E disease control rating” value in assay [5] (setting [7]) came out at 45%.
Turning to `CCC1(C(=O)NC(C)COc2ccc(F)c(Cl)c2)C(C)C1(Cl)Cl` (centres unmarked) [compound 232], the “Test A disease control rating (100 = 100% disease control, 0 = no disease control)” value in assay [1] came to 62%. Besides, the “Test B disease control rating (100 = 100% disease control, 0 = no disease control)” value in assay [2] worked out at 0%. Besides, the “Test C disease control rating (100 = 100% disease control, 0 = no disease control)” value in assay [3] turned out to be 100%. In addition, the “Test D disease control rating (100 = 100% disease control, 0 = no disease control)” value in assay [4] is 35%. In addition, the “Test E disease control rating (100 = 100% disease control, 0 = no disease control)” value in assay [5] is listed as 69%.
Take `CCC1(C(=O)NCCCn2cccc2C#N)C(C)C1(Cl)Cl` (centres unmarked) [compound 149]: the “Test A disease control rating” value in assay [1] (setting [6]) came out at 30%. Moreover, in assay [2] (setting [7]), the “Test B disease control rating” value came to 27%. The “Test C disease control rating” value in assay [3] (setting [7]) came to 53%. Besides, the “Test D disease control rating” value in assay [4] (setting [7]) was 0%. Besides, the “Test E disease control rating” value in assay [5] (setting [7]) came to 0%.
In the case of `CC(COc1c(Cl)cc(Cl)cc1Cl)NC(=O)C(C#N)C(C)(C)C` (mixture of isomers) [compound 172], in assay [1] (setting [6]), the “Test A disease control rating” value is given as 0%. In addition, the “Test B disease control rating” value in assay [2] (setting [7]) is 0%. Besides, in assay [3] (setting [7]), the “Test C disease control rating” value was determined as 86%. Further, the “Test D disease control rating” value in assay [4] (setting [7]) amounted to 0%. In assay [5] (setting [7]), the “Test E disease control rating” value turned out to be 95%.
Turning to `CCC1(C(=O)NC(C)COc2cccc(Cl)c2Cl)C(C)C1(Cl)Cl` (centres unmarked) [compound 111], the “Test A disease control rating” value in assay [1] (tested at 40 ppm) stood at 90%. The “Test B disease control rating” value in assay [2] (tested at 40 ppm) is recorded as 0%. Further, the “Test C disease control rating” value in assay [3] (tested at 40 ppm) came out at 0%. In assay [4] (tested at 40 ppm), the “Test D disease control rating” value came out at 90%. In addition, the “Test E disease control rating” value in assay [5] (tested at 40 ppm) is listed as 0%.
Consider `CC(COc1cccc(Cl)c1C#N)NC(=O)C(C#N)C(C)(C)C` (mixture of isomers) [compound 42], for which the “Test A disease control rating” value in assay [1] (setting [6]) stood at 0%. Moreover, the “Test B disease control rating” value in assay [2] (setting [7]) is listed as 0%. Further, the “Test C disease control rating” value in assay [3] (setting [7]) is on record as 53%. Further, the “Test D disease control rating” value in assay [4] (setting [7]) was 2%. In addition, the “Test E disease control rating” value in assay [5] (setting [7]) turned out to be 0%.
